Experimental data reported in patent publication US10174036B2, “Substituted pyrazoles as JAK inhibitors” (WUXI FORTUNE PHARMACEUTICAL CO., LTD, priority 2015, dated 2019).
Where two headings read alike, the source gives them in different places.

Legend:
Format in all cases: biochemical
JAK1 = target: T1, JAK1 (Homo sapiens, UniProt P23458); assay: Test for in vitro activity of JAK1 kinase (LANCE Ultra ULight-JAK-1 peptide); conditions: selectivity ratio JAK1 versus JAK2; class symbol
T1 construct: purchased Life technology
T1 sequence (P23458 whole entry): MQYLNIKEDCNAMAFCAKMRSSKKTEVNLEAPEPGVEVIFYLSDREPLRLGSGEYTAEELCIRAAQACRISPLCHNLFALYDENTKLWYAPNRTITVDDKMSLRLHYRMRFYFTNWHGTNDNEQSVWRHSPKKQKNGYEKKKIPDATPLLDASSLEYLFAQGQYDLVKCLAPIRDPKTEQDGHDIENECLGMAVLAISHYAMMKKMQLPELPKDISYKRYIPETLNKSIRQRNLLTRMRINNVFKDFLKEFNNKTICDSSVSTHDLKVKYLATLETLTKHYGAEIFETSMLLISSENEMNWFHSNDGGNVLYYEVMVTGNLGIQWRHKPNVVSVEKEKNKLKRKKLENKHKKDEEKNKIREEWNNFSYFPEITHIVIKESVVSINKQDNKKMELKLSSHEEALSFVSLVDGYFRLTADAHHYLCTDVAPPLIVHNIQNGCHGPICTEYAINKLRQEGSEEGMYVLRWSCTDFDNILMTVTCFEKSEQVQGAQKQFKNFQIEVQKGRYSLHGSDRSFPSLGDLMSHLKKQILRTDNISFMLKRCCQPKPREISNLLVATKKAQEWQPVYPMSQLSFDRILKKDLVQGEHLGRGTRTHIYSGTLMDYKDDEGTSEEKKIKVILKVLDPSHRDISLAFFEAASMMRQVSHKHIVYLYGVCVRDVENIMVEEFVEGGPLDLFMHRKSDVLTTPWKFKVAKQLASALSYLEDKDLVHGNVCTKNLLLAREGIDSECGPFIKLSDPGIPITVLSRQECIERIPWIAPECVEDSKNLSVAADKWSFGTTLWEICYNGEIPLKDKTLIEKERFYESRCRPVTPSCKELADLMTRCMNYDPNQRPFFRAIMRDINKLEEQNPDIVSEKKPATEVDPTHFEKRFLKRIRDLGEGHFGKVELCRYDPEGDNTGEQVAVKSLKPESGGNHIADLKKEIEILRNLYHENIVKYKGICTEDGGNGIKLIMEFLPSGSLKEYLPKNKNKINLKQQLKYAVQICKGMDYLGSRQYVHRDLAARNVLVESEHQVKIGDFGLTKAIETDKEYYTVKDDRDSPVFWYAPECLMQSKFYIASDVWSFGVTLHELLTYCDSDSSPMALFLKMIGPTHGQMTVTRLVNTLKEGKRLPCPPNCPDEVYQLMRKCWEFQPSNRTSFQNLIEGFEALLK
Protocol: (§1) Test for In Vitro Activity of Jak1, Jak2, and Jak3 Kinase
(§2) Recombinant human […] of JAK1, JAK2 and JAK3 were purchased from Life technology. LANCE Ultra ULight™-JAK-1 (Tyr1023) peptide and LANCE Eu-W1024 Anti-phosphotyrosine (PT66) were purchased from PerkinElmer. Multimode ELISA, Envison(PerkinElmer) reader was used.
The reaction was carried out at room temperature for 90 min and the reaction system was 10 ul.
(§3) Determination for Reaction
(§4) 10 ul detection reagent was added to reaction plate, wherein the final concentration of LANCE Eu-W1024 Anti-phosphotyrosine (PT66) was 2 nM, the final concentration of EDTA was […], incubated at room temperature for 60 min, with Envison reader.
(§5) The reading was converted to inhibition ratio (%) by the following formula: the inhibition ratio (%)=([…])/(Max−Min)×100%.

JAK3 = target: T2, JAK3 (Homo sapiens, UniProt P52333); assay: Test for in vitro activity of JAK3 kinase (LANCE Ultra ULight-JAK-1 peptide)
T2 construct: purchased Life technology
T2 sequence (P52333 1-1124): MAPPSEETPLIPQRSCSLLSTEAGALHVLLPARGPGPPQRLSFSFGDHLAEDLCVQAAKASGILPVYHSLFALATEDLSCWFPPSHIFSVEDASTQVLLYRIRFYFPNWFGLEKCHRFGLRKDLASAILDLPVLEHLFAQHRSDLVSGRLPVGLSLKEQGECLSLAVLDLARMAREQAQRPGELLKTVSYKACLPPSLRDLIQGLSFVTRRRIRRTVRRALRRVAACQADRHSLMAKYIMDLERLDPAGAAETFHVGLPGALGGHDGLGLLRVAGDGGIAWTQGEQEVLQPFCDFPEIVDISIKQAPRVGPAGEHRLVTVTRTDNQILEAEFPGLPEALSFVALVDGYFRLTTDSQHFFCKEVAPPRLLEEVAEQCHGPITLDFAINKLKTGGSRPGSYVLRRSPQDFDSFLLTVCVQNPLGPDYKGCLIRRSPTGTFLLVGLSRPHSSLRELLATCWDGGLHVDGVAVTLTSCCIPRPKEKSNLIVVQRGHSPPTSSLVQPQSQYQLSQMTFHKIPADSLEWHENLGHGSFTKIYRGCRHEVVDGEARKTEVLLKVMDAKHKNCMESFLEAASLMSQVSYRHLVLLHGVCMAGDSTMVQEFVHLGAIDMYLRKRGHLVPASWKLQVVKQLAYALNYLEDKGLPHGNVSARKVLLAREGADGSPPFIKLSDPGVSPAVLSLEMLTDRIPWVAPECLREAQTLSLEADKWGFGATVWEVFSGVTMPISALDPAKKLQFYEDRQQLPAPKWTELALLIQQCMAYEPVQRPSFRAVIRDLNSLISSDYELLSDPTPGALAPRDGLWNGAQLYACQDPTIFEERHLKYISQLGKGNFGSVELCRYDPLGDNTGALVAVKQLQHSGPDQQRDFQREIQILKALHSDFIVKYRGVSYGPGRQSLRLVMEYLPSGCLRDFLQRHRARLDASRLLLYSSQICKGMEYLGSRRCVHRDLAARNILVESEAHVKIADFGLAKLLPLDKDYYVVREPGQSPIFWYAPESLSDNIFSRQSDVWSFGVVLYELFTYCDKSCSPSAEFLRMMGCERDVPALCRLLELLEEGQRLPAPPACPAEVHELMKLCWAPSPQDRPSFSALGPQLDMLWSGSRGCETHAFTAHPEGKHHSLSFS
Protocol: as §1, §2
0.05 nM of JAK3 Protein kinase, 50 nM of LANCE Ultra ULight™-JAK-1(Tyr1023) peptide, 4 uM of ATP, 50 mM of HEPES (pH 7.5), 10 mM of MgCl2, 1 mM of EGTA, 2 mM of DTT, 0.01% BRIJ-35. […] The reaction was carried out at room temperature for 90 min and the reaction system was 10 ul.
as §3, §4, §5

JAK2 = target: T3, JAK2 (Homo sapiens, UniProt O60674); assay: Test for in vitro activity of JAK2 kinase (LANCE Ultra ULight-JAK-1 peptide)
T3 construct: purchased Life technology
T3 sequence (O60674 whole entry): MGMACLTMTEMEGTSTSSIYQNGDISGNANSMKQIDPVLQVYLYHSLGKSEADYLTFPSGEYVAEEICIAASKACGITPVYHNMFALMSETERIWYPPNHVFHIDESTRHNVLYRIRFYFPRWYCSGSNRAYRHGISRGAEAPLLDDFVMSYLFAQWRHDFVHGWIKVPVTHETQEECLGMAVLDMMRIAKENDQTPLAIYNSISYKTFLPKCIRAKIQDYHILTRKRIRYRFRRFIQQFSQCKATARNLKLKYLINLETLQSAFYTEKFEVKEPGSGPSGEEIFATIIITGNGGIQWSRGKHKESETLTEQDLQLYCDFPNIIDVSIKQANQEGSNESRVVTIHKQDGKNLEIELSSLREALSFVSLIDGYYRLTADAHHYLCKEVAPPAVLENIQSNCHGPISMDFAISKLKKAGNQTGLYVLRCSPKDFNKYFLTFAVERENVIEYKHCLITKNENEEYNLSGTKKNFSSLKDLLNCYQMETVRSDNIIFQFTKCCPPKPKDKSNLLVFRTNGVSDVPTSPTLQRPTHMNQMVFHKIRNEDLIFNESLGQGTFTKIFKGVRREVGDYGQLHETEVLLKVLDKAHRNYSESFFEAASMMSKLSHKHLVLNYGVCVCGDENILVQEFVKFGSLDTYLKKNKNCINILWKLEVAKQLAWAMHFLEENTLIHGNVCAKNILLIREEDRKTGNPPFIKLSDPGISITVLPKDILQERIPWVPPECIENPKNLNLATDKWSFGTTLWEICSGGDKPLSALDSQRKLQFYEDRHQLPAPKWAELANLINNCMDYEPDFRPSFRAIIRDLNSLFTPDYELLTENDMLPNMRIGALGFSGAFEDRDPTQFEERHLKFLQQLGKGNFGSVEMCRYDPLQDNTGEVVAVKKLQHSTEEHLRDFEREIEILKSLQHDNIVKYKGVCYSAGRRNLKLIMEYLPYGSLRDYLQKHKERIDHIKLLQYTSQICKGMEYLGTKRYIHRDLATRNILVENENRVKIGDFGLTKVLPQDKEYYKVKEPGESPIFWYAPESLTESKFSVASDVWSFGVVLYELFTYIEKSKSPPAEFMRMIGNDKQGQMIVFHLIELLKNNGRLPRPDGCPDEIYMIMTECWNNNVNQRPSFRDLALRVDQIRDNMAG
Protocol: as §1, §2
The reaction was carried out at room temperature for 60 min and the reaction system was 10 ul.
as §3, §4, §5

[1] = selectivity ratio JAK3 versus JAK2, class symbol
[2] = recombinant human JAK2, 12 uM ATP, 60 min, class symbol

JAK1/JAK2 (times) (JAK1) | JAK3/JAK2 (times) (JAK3; [1]) | IC50 (JAK2; [2]) [nM] | Molecule | JAK3/JAK2 (times) (JAK3) | IC50 (JAK2) [nM]
F2 (5 < F2 ≤ 10) | F3 (10 < F3 ≤ 25) | 100 to 1000 | N#CCC1(n2cc(-c3nccc4nc(NC(=O)C5CC(F)(F)C5)nn34)cn2)CN(S(=O)(=O)C(F)(F)F)C1 [WX32, N-[5-[1-[3-(cyanomethyl)-1-(trifluoromethylsulfonyl)azetidin-3-yl]pyrazole-4-yl]-[1,2,4]triazolo[1,5-c]pyrimidin-2-yl]-3,3-difluoro-cyclobutanecarboxamide] | – | –
F1 (1 ≤ F1 ≤ 5) | F3 (10 < F3 ≤ 25) | 100 to 1000 | N#CCC1(n2cc(-c3cccn4nc(NC(=O)C(F)(F)F)nc34)cn2)CN(S(=O)(=O)C2CC2)C1 [WX23] | – | –
F1 (1 ≤ F1 ≤ 5) | F3 (10 < F3 ≤ 25) | 10 to 100 | N#CCC1(n2cc(-c3nccc4nc(N)nn34)cn2)CN(S(=O)(=O)C(F)(F)F)C1 [WX05, 2-[3-[4-(2-amino-[1,2,4]triazolo[1,5-c]pyrimidin-5-yl)pyrazole-1-yl]-1-(trifluoromethylsulfonyl)cyclobutylamine-3-yl]acetonitrile] | – | –
F3 (10 < F3 ≤ 25) | F4 (25 < F4 ≤ 100) | 10 to 100 | COCC(=O)Nc1nc2ccnc(-c3cnn(C4(CC#N)CN(S(=O)(=O)C(F)(F)F)C4)c3)n2n1 [WX24, N-(5-(1-(3-(cyanomethyl)-1-((trifluoromethyl)sulfonyl)azetidine-3-yl)-1H-pyrazole-4-yl)-[1,2,4]triazolo[1,5-c]pyridin-2-yl)-2-methoxyacetamide] | – | –
F2 (5 < F2 ≤ 10) | F4 (25 < F4 ≤ 100) | < 10 | N#CCC1(n2cc(-c3cccc4nc(NC(=O)C5CC5)nn34)cn2)CN(S(=O)(=O)C(F)F)C1 [WX14, N-[5-[1-[3-(cyanomethyl)-1-(difluoromethylsulfonyl)azetidine-3-]pyrazole-4-]-[1,2,4]triazolo[1,5-c]pyridin-2-]cyclopropyl carboxamide] | – | –
F2 (5 < F2 ≤ 10) | F4 (25 < F4 ≤ 100) | < 10 | CS(=O)(=O)N1CC(CC#N)(n2cc(-c3cccc4nc(NC(=O)C5CC5)oc34)cn2)C1 [WX30, N-(7-(1-(3-(cyanomethyl)-1-(methylsulfonyl)azetidin-3-yl)-1H-pyrazole-4-yl)benzo[d]oxazole-2-yl) cyclopropanecarboxamide] | – | –
F1 (1 ≤ F1 ≤ 5) | F3 (10 < F3 ≤ 25) | < 10 | N#CCC1(n2cc(-c3cccc4nc(N)nn34)cn2)CN(S(=O)(=O)C(F)(F)F)C1 [WX18] | – | –
F3 (10 < F3 ≤ 25) | F3 (10 < F3 ≤ 25) | 100 to 1000 | CS(=O)(=O)N1CC(CC#N)(n2cc(-c3nccc4nc(NC(=O)CC#N)nn34)cn2)C1 [WX26] | – | –
F1 (1 ≤ F1 ≤ 5) | F4 (25 < F4 ≤ 100) | < 10 | CCS(=O)(=O)N1CC(CC#N)(n2cc(-c3cccn4nc(NC(=O)C5CC5)nc34)cn2)C1 [WX20, N-(8-(1-(3-(cyanomethyl)-1-(ethylsulfonyl)azetidine-3-yl)-1H-pyrazole-4-yl)-[1,2,4]triazolo[1,5-a]pyridin-2-yl) cyclopropanecarboxamide] | – | –
F1 (1 ≤ F1 ≤ 5) | F1 (1 ≤ F1 ≤ 5) | 100 to 1000 | COCC(=O)N1CC(CC#N)(n2cc(-c3nccc4nc(NC(=O)C5CC5)nn34)cn2)C1 [WX10, N-[5-[1-[3-(cyanomethyl)-1-(2-methoxyacetyl)azetidine-3-]pyrazole-4-]-[1,2,4]triazoloe[1,5-c]pyrimidine2-] cyclopropane carboxamide] | – | –
F1 (1 ≤ F1 ≤ 5) | F3 (10 < F3 ≤ 25) | < 10 | CCS(=O)(=O)N1CC(CC#N)(n2cc(-c3cccc4nc(NC(=O)C5CC5)nn34)cn2)C1 [WX16, N-(5-(1-(3-(cyanomethyl)-1-(ethylsulfony)azetidine-3-yl)-1H-pyrazole-4-yl]-[1,2,4]triazolo[1,5-a]pyridin-2-yl)cyclopropyl carboxamide] | – | –
F1 (1 ≤ F1 ≤ 5) | F4 (25 < F4 ≤ 100) | < 10 | CS(=O)(=O)N1CC(CC#N)(n2cc(-c3cccc4nc(NC(=O)C5CC5)nn34)cn2)C1 [WX15] | – | –
F2 (5 < F2 ≤ 10) | F3 (10 < F3 ≤ 25) | 10 to 100 | N#CCC1(n2cc(-c3nccc4nc(NC(=O)C5CC5)nn34)cn2)CN(S(=O)(=O)C2CC2)C1 [WX03, N-[5-[1-[3-(cyanomethyl)-1-cyclopropylsulfonyl-azetidine-3-yl]pyrazole-4-yl]-[1,2,4]triazolo[1,5-c]pyrimidin-2-yl]cyclopropanecarboxamide] | – | –
F1 (1 ≤ F1 ≤ 5) | F4 (25 < F4 ≤ 100) | < 10 | N#CCC1(n2cc(-c3cccc4nc(NC(=O)C5CC5)nn34)cn2)CN(S(=O)(=O)C(F)(F)F)C1 [WX09, N-(5-(1-(3-(cyanomethyl)-1-(trifluoromethylsulfonyl)azetidine-3-yl)-1H-pyrazole-4-yl)-[1,2,4]triazolo[1,5-a]pyridin-2-yl)cyclopropane formamide] | – | –
F1 (1 ≤ F1 ≤ 5) | F3 (10 < F3 ≤ 25) | 10 to 100 | CS(=O)(=O)N1CC(CC#N)(n2cc(-c3nccc4nc(N)nn34)cn2)C1 [WX04, 2-[3-[4-(2-amino-[1,2,4]triazolo[1,5-c]pyrimidin-5-yl)pyrazole-1-yl]-1-methylsulfonyl-cyclobutylamine-3-yl] acetonitrile] | – | –
F2 (5 < F2 ≤ 10) | F3 (10 < F3 ≤ 25) | 100 to 1000 | CCS(=O)(=O)N1CC(CC#N)(n2cc(-c3nccn4nc(NC(=O)C5CC5)nc34)cn2)C1 [WX31, N-[8-[1-[3-(cyanomethyl)-1-ethylsulfonylazetidin-3-yl]pyrazole-4-yl)-[1,2,4]triazolo[1,5-a]pyrazine-2-yl] cyclopropanecarboxamide] | – | –
F3 (10 < F3 ≤ 25) | F2 (5 < F2 ≤ 10) | 100 to 1000 | N-(5-(1-(3-(cyanomethyl)-1-((methylsulfonyl)azetidine-3-yl)-1H-pyrazole-4-yl)-[1,2,4]triazolo[1,5-c]pyridin-2-yl)-2-methoxyacetamide [WX25] | – | –
F1 (1 ≤ F1 ≤ 5) | F4 (25 < F4 ≤ 100) | 10 to 100 | N#CCC1(n2cc(-c3cccc4nc(NC(=O)C5CC5)nn34)cn2)CNC1 [WX00, N-[5-[1-[3-(cyanomethyl)azetidine-3-yl]pyrazole-4-yl]-[1,2,4]triazolo[1,5-a]pyridin-2-yl] cyclopropane carboxamide] | – | –

Molecule | JAK1/JAK2 (times) (JAK1) | JAK3/JAK2 (times) (JAK3; [1]) | IC50 (JAK2; [2]) [nM] | JAK3/JAK2 (times) (JAK3) | IC50 (JAK2) [nM]
CS(=O)(=O)N1CC(CC#N)(n2cc(-c3cccc4nc(N)nn34)cn2)C1 [WX19, 2-(3-(4-(2-amino-[1,2,4]triazolo[1,5-a]pyridinyl)-1H-pyrazolyl)-1-(methylsulfonyl)cyclobutane)acetonitrile] | F1 (1 ≤ F1 ≤ 5) | F3 (10 < F3 ≤ 25) | 10 to 100 | – | –
CS(=O)(=O)N1CC(CC#N)(n2cc(-c3cccc4nc(N)sc34)cn2)C1 [WX27, 2-(3-(4-(2-aminobenzo[d]thiazole-7-yl)-1H-pyrazole-1-yl)-(methylsulfonyl)azetidine-3-yl) methyl cyanide] | F3 (10 < F3 ≤ 25) | – | – | F2 (key: 1 ≤ F1 ≤ 5; 5 < F2 ≤ 10; 10 < F3 ≤ 25; 25 < F4 ≤ 100) | < 10
